Test results as given in patent US20020114734A1, “Microplate thermal shift assay apparatus for ligand development and multi-variable protein chemistry optimization” (priority 1996, published 2002).
Read-outs that look alike come from different tables or passages of the source.

Experiments:
[1] = literature; cited from earlier work
D(II)-D(III) FGFR1 = settings: titrating calorimetry, read-out: Kd (298° K) Literature; cited from earlier work
[2] = biological target: T1, heparin binding site of human α-thrombin (Homo sapiens, UniProt P00734); assay: Microplate thermal shift assay, ligands binding to the heparin binding site, turbidity as signal
T1 construct: A stock human α-thrombin solution; purchased Enzyme Research Labs
From the text: Assays for ligands that bind to the heparin binding site of human α-thrombin are more difficult to perform than assays for ligands that bind to the active site of human α-thrombin. At the heparin binding site, no substrate is hydrolyzed, so no spectrophotometric signal can be amplified for instrumental detection. Heparin activity is usually estimated in biological clotting time assays. […] Thus, heparin binding to human α-thrombin represents the kind of challenge encountered with the vast majority of non-enzyme receptor/ligand binding events, which are commonly observed for hormone/receptor interactions, repressor/DNA interactions, neurotransmitter/receptor interactions, etc. Several heparin-like sulfated oligosaccharides and sulfated naphthalene compounds were assayed by the microplate thermal shift assay. Using the thermal shift assay, it was possible to use a single compound per well to quickly rank the compounds in order of increasing binding affinity, with Kd's ranging over three orders of magnitude (see Table 4). Like the experiment in Example 1, the thermal shift assay results agreed closely with the results obtained through an alternative method, which required a series of laborious (15 to 20 single determinations) fluorescence quench assays over a wide range of concentrations of low MW heparin (Olson, S. T. et al., J. Biol. Chem. 266:6342-6352 (1991)).

bFGF = bFGF (Homo sapiens, UniProt P09038); settings: binding to bFGF by isothermal titrating calorimetry; read-out: Ki (298° K) Literature; cited from earlier work
bFGF, sequence (P09038 134-288, species assumed): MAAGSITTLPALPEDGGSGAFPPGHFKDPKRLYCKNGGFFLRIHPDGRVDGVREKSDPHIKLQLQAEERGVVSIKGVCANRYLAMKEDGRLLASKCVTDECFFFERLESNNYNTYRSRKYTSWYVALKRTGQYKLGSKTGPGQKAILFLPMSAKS

[3] = biological target: T2, heparin binding site of basic fibroblast growth factor (bFGF) (Homo sapiens, UniProt P09038); assay: Microplate thermal shift assay for ligands binding to bFGF; settings: read-out: binding affinity
T2 construct: host or cells: E. coli
T2 sequence (P09038 134-288, species assumed): as above
From the text: The microplate thermal shift assay was used to assess ligands for binding to the heparin binding site of basic fibroblast growth factor (bFGF). The gene for bFGF was purchased from R&D Systems and was cloned and expressed in E. coli as previously described (Thompson, L. D. et al., Biochemistry 33:3831-3840 (1994); Pantoliano, M. W. et al., Biochemistry 33:10229-10248 (1994); Springer, B. A. et al., J. Biol. Chem. 269:26879-26884 (1994)).

[4] = biological target: T3, acidic fibroblast growth factor (aFGF) (Homo sapiens, UniProt P05230); assay: Microplate thermal shift assay for ligands binding to aFGF, turbidity as signal
T3 construct: host or cells: E. coli
T3 sequence (P05230 whole entry, species assumed): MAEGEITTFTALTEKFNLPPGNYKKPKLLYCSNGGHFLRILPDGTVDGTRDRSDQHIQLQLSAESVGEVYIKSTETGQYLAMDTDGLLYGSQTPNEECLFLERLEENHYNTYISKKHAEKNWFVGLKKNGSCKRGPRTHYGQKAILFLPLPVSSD
From the text: The second therapeutic receptor tested in the microplate thermal shift assay was acidic fibroblast growth factor (aFGF), a growth factor that plays a key role in angiogenesis (Folkman, J. et al., J. Biol. Chem. 267:10931-10934 (1992)). A synthetic gene for this protein was purchased from R&D Systems (Minneapolis, Minn.), and was cloned and expressed in E. coli using methods similar to those described for basic fibroblast growth factor (bFGF) (Thompson, L. D. et al., Biochemistry 33:3831-3840 (1994); Pantoliano, M. W. et al., Biochemistry 33:10229-10248 (1994); Springer, B. A. et al., J. Biol. Chem. 269:26879-26884 (1994)). Recombinant aFGF was then purified by heparin-sepharose affinity chromatography as described (Thompson, L. D. et al., Biochemistry 33:3831-3840 (1994)). aFGF is also known to bind heparin/heparan, which is a cofactor for mitogenic activity. […] A microplate thermal assay of these compounds was set up in a way similar to that described above for human α-thrombin. […] The affinity constants covered a fairly broad range of binding affinities, with pentosan PSO4 showing the highest affinity.

[5] = many effects described as coagulation anomalies; cited from earlier work
[6] = system: D(II) domain of human FGF receptor 1; assay: Microplate thermal shift assay for ligands binding to D(II) FGFR1, fluorescence emission as signal
D(II) domain of human FGF receptor 1, sequence (P11362 158-246 limits assumed): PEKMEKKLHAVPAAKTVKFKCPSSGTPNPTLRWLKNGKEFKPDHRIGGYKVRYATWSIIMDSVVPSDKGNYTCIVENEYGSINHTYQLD
From the text: The microplate thermal-shift assay was employed to test the binding of heparin 5000 and pentosan PSO4 to the known heparin binding site in the D(II) domain of fibroblast growth factor receptor 1 (FGFR1). D(II) FGFR1 is a 124 residue domain which is responsible for most of the free energy of binding for bFGF. D(II) FGFR1 was cloned and expressed in E. coli. Recombinant D(II) FGFR1 was renatured from inclusion bodies essentially as described (Wetmore, D. R. et al., Proc. Soc. Mtg., San Diego, Calif. (1994)), except that a hexa-histidine tag was included at the N-terminus to facilitate recovery by affinity chromatography on a Ni^2+ chelate column (Janknecht, R. et al., Natl. Acad. Sci. USA 88:8972-8976 (1991)). D(II) FGFR1 was further purified on a heparin-sepharose column (Kan, M. et al., Science 259:1918-1921 (1993); Pantoliano, M. W. et al., Biochemistry 33:10229-10248 (1994)). Purity was >95%, as judged by SDS-PAGE. The D(II) FGFR1 protein was concentrated to 12 mg/mL (˜1 mM) and stored at 4° C.
The D(II) FGFR1 protein was dissolved in an ANS solution to a concentration of […] (70 μM). The quantum yield for ANS bound to the denatured form of D(II) FGFR1 was lower than the quantum yield for ANS bound to human α-thrombin. Because ANS fluorescence is very environment dependent (see Lakowicz, I. R. Principles of Fluorescence Spectroscopy, Plenum Press, New York (1983)), the quantum yield observed for the denaturation of different proteins will vary. For D(II) FGFR1, the signal for the turbidity version of the assay, however, was nearly undetectable. Despite the decreased sensitivity for D(II) FGFR1, ANS rescued this system for the microplate assay. A similar-result was obtained for Factor Xa, except that the fluorescence quantum yield for ANS bound to denatured Factor Xa was almost as good as it was for human α-thrombin.

[7] = equation (1), estimated ΔHu 60.0 kcal/mole, ΔCpu 0.95 kcal/mole-°K, read-out: Kd at Tm

D(II)-D(III) FGFR1, sequence (P11362 150-254 limits assumed): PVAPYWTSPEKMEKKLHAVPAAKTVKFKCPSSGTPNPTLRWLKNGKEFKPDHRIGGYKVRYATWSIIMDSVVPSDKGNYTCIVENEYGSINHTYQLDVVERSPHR

## pentosan polysulfate [Pentosan PSO4]
[1]
  anticoagulant properties: anticoagulant properties
D(II)-D(III) FGFR1
  Kd: 10900 nM
[2]; calculated with equation (1), read-out: Kd at Tm
  Kd: 2420 nM
[2]; estimated with equation (3), ΔHL estimated −10.0 kcal/mole, read-out: Kd at 298° K Observed
  Kd: 427 nM
[2]; thermal shift assay, at Tm
  affinity at Tm, fold higher than the affinity of heparin 5000: 7 fold
[2]; thrombin/ligand complex, 11 μM thrombin, ligand 40-102 μM, turbidity
  Tm: 332.15 ° K
bFGF
  Ki: 88 nM
[3]
  Kd: 55 nM
[4]; aFGF/ligand, aFGF 0.25 mg/mL, ligand 47-200 μM, turbidity
  Tm: 336.15 ° K
[4]; [7]
  Kd: 208 nM
[4]; equation (3), ΔHL estimated −10.0 kcal/mole, read-out: Kd at 298° K Observed
  Kd: 31 nM
[5]
  outcome of clinical trials: discounted due to toxic effects
[6]; D(II) FGFR1 70 μM, 136 μM ANS, ligand 150-156 μM
  Tm: 319.4 ° K
[6]; [7]
  Kd: 19100 nM
[6]; equation (3), ΔHL −12.1 (pentosan PSO4) and −7.48 kcal/mole (heparin 5000), read-out: Kd at 298° K Observed
  Kd: 4900 nM
